Reference: US20260176289A1, “SMALL MOLECULE INHIBITORS OF KRAS PROTEINS” (Merck Sharp & Dohme LLC, priority 2022, published 2026)
Read-outs that look alike come from different tables or passages of the source.

Columns and labels:
KRAS-G12V = KRAS-G12V (Homo sapiens, UniProt P01116, G12V); assay: SOS-catalyzed nucleotide exchange assay (Procedure A, TR-FRET), KRAS-G12V; format: biochemical; details: nucleotide exchange, read-out: KRAS G12V GNE IC50
Procedure, shortened: (§1)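 TR-FRET 520/495 nm ratio read after SOS-driven exchange of Bodipy-GDP for unlabeled GTP (3 mM) on biotinylated RAS bound to Tb-streptavidin. There was a 60 min compound preincubation, RT. Final RAS/SOS and reaction times: G12C 3 nM/40 nM; WT 1 nM/40 nM; NRAS 1.25 nM/40 nM, each 60 min. G12V was 1.25 nM/160 nM, 90 min.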

[1] = molecular target: KRAS-G12C (C51S/C80L/C118S) (Homo sapiens, UniProt P01116, C118S/C51S/C80L/G12C); assay: SOS-catalyzed nucleotide exchange assay (Procedure A, TR-FRET), KRAS-G12C; format: biochemical; details: nucleotide exchange, Procedure A; read-out: KRAS G12C GNE IC50
KRAS-G12C (C51S/C80L/C118S), sequence (P01116 with tags, fused parts or gaps isoform P01116-2 G12C/C51S/C80L/C118S): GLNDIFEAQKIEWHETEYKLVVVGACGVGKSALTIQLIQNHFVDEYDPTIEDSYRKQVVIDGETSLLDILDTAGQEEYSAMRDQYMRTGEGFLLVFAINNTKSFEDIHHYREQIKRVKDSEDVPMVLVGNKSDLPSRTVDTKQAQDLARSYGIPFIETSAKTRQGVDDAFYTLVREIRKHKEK
Procedure, shortened: as §1

KRAS-G12D = KRAS-G12D (Homo sapiens, UniProt P01116, G12D); assay: SOS-catalyzed nucleotide exchange assay (Procedure A, TR-FRET), KRAS-G12D; format: biochemical; details: nucleotide exchange, read-out: KRAS G12D GNE IC50
KRAS-G12D, sequence (P01116 with tags, fused parts or gaps isoform P01116-2 G12D): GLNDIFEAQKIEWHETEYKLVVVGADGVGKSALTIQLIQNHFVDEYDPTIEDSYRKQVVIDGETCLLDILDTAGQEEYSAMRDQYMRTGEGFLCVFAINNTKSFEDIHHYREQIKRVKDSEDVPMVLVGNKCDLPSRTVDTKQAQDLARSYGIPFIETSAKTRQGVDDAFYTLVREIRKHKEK
Procedure, shortened: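 Signal ratio (520/495 nm, excitation 340 nm) reports Bodipy-GDP retention on biotinylated RAS after SOS-catalyzed exchange with 3 mM GTP. SOS was 40 nM, except 160 nM for G12V. Room-temperature exchange lasted 60 min (90 min for G12V), following a 60 min compound preincubation.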

KRAS-WT = KRAS-WT (Homo sapiens, UniProt P01116); assay: SOS-catalyzed nucleotide exchange assay (Procedure A, TR-FRET), KRAS-WT; format: biochemical; details: nucleotide exchange, read-out: KRAS WT GNE IC50
KRAS-WT, sequence (P01116 with tags, fused parts or gaps isoform P01116-2): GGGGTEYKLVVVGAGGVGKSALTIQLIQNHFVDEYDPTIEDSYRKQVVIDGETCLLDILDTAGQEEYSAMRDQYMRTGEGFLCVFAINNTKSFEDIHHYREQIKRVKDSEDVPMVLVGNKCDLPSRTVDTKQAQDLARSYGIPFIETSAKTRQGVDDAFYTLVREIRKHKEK
Procedure, shortened: as §1

KRAS-G13D = KRAS-G13D (Homo sapiens, UniProt P01116, G13D); assay: SOS-catalyzed nucleotide exchange assay (Procedure A, TR-FRET), KRAS-G13D; format: biochemical; details: nucleotide exchange, Procedure A; read-out: KRAS G13D GNE IC50
KRAS-G13D, sequence (P01116 with tags, fused parts or gaps isoform P01116-2 G13D): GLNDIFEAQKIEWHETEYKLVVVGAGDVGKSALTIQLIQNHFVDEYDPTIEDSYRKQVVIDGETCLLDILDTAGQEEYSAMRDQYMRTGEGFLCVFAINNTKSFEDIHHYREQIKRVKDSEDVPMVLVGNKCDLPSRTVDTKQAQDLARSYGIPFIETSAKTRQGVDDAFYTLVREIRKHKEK

PANC08.13 cells = assay: Cellular phospho-ERK assay, PANC08.13 cells (homozygous KRAS-G12D); format: cell-based; details: Homo sapiens, read-out: PANC-08.13 pERK IC50
Experimental: Procedure for Cellular Phospho-ERK Assay in KRAS Wild Type and Mutant (G12D, G12V) Cell Lines
MKN-1 cells (JCRB JCRB0252) containing amplified wild-type KRAS, were cultured in growth medium that contains RPMI 1640-GlutaMAX™-I (ThermoFisher Scientific 61870) containing 10% heat inactivated fetal bovine serum (ThermoFisher Scientific 10091148), 1 mM sodium pyruvate and 10 mM HEPES. PANC08.13 cells (ATCC® CRL-2551™), containing homozygous KRAS-G12D activating mutation, were cultured in growth medium made of RPMI1640-GlutaMAX™-I (ThermoFisher Scientific 61870) containing 15% heat inactivated fetal bovine serum (ThermoFisher Scientific 10091148)). AsPC-1 cells (ATCC® CRL-1682™), containing homozygous KRAS-G12D activating mutation, were cultured in T150 flask in growth medium (RPMI medium 1640-GlutaMAX™-I (ThermoFisher Scientific 61870) containing 10% fetal bovine serum (ThermoFisher Scientific 10091148)). SW620 cells (ATCC® […]), containing homozygous KRAS-G12V activating mutation, were cultured in growth medium that contains RPMI 1640-GlutaMAX™-I (ThermoFisher Scientific 61870) containing 10% heat inactivated fetal bovine serum (ThermoFisher Scientific 10091148).
Cells for the assay were harvested in growth medium after TrypLE (ThermoFisher scientific 12604021) digestion and were seeded in a 384-well collagen coated cell culture plate (Corning 356702) at a density of 10,000-15,000 cells/20 μL/well, and incubated at 37° C., 5% CO2 overnight. The compound (with 10 mM stock concentration) dose-response titrations were prepared [30 μM final ERK detection assay concentration and 1:3 dilutions, 10-point dose response] and appropriate amounts (270 nL) of test compounds were dispensed in a 384-well intermediate plate using an Echo 550 liquid handler. 30 μL/well of RPMI medium 1640-GlutaMAX™—I was added to the intermediate plate and the contents of the intermediate plate (10 μL/well) were then transferred to the 384-well collagen coated cell culture plate, which was incubated at 37° C., 5% CO2 for 2 hours. After removal of medium from the collagen coated cell culture plate, cells were lysed in lysis buffer from Alpha SureFire® Ultra™ Multiplex p-ERK and total ERK assay kit (PerkinElmer MPSU-PTERK) containing Halt™ Protease and Phosphatase inhibitor cocktail (ThermoFisher Scientific 78446) at room temperature with constant shaking at 300 rpm for 30 minutes. The cell lysates were then transferred to an OptiPlate-384 plate (PerkinElmer 6005620), and the phosphorylation of ERK (p-ERK) and total ERK levels were detected by Alpha SureFire® Ultra™ Multiplex p-EEK kit and total ERK assay kit (PerkinElmer MPSU-PTERK) following the manufacturer's protocol. Assay plates were read on a En Vision Multimode Plate Reader (PerkinElmer), and the ratio of p-ERK vs. total ERK in each well was used as the final readout. Dose response curves were analyzed using a 4-parameter logistic model to calculate IC50 values using Spotfire software.

[2] = PANC-08-13, 2 hours compound incubation

KRAS-G12V, sequence (P01116 with tags, fused parts or gaps isoform P01116-2 G12V): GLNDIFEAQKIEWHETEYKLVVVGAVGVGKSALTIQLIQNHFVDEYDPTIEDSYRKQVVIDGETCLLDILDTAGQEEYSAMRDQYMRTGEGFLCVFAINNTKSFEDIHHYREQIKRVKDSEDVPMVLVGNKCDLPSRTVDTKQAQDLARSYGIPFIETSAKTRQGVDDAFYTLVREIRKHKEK

IC50 (KRAS-G12V) [nM]	IC50 [1] [nM]	IC50 (KRAS-G12D) [nM]	IC50 (KRAS-WT) [nM]	IC50 (KRAS-G13D) [nM]	IC50 (PANC08.13 cells; PANC-08-13, KRAS-G12D, 2 hours) [nM]	IC50 (PANC08.13 cells; [2]) [nM]	SMILES
1020	300	1420	1810	592	3750		C#Cc1c(F)ccc2cc(N)nc(-c3nccc4c5c(N6CCOC[C@@](C)(O)C6)nc(OC[C@@]67CCCN6C[C@H](F)C7)nc5n(C)c34)c12 [Ex-17, (S)-4-(8-(3-amino-8-ethynyl-7-fluoroisoquinolin-1-yl)-2-(((2R,7aS)-2-fluorotetrahydro-1H-pyrrolizin-7a(5H)-yl)methoxy)-9-methyl-9H-pyrido[4′,3′:4,5]pyrrolo[2,3-d]pyrimidin-4-yl)-6-methyl-1,4-oxazepan-6-ol]
492	224	705	929	1020	749		CCn1c2nc(OC[C@@]34CCCN3C[C@H](F)C4)nc(N3CCOC[C@@](C)(O)C3)c2c2ccnc(-c3c(C(F)(F)F)c(C)cc4[nH]ncc34)c21 [Ex-24, (6S)-4-(9-ethyl-2-(((2R,7aS)-2-fluorotetrahydro-1H-pyrrolizin-7a(5H)-yl)methoxy)-8-(6-methyl-5-(trifluoromethyl)-1H-indazol-4-yl)-9H-pyrido[4′,3′:4,5]pyrrolo[2,3-d]pyrimidin-4-yl)-6-methyl-1,4-oxazepan-6-ol]
440	175	261	494	1090	900		Cc1cc2[nH]ncc2c(-c2nccc3c2sc2nc(OC[C@@]45CCCN4C[C@H](F)C5)nc(N4CCOC[C@@](C)(O)C4)c23)c1C#N [Ex-34, 4-(2-(((2R,7aS)-2-fluorotetrahydro-1H-pyrrolizin-7a(5H)-yl)methoxy)-4-((S)-6-hydroxy-6-methyl-1,4-oxazepan-4-yl)pyrido[4′,3′:4,5]thieno[2,3-d]pyrimidin-8-yl)-6-methyl-1H-indazole-5-carbonitrile]
533	125	164	330	150	268		CCc1c(C)cc2[nH]ncc2c1-c1nccc2c1sc1nc(OC[C@@]34CCCN3C[C@H](F)C4)nc(N3CCOC[C@@](C)(O)C3)c12 [Ex-36, (6S)-4-(8-(5-ethyl-6-methyl-1H-indazol-4-yl)-2-(((2R,7aS)-2-fluorotetrahydro-1H-pyrrolizin-7a(5H)-yl)methoxy)pyrido[4′,3′:4,5]thieno[2,3-d]pyrimidin-4-yl)-6-methyl-1,4-oxazepan-6-ol]
1490	1480	1450	3070	2450	1800		Cc1cc(-c2nccc3c2sc2nc(OC[C@@]45CCCN4C[C@H](F)C5)nc(N4CCOC[C@@](C)(O)C4)c23)c2cn[nH]c2c1 [Ex-37, (S)-4-(2-(((2R,7aS)-2-fluorotetrahydro-1H-pyrrolizin-7a(5H)-yl)methoxy)-8-(6-methyl-1H-indazol-4-yl)pyrido[4′,3′:4,5]thieno[2,3-d]pyrimidin-4-yl)-6-methyl-1,4-oxazepan-6-ol]
130	47.1	120	250	110		279	C[C@@]1(O)COCCN(c2nc(OC[C@@]34CCCN3C[C@H](F)C4)nc3sc4c(-c5c(C(F)F)c(Cl)cc6[nH]ncc56)nccc4c23)C1 [Ex-133, (6S)-4-(8-(6-chloro-5-(difluoromethyl)-1H-indazol-4-yl)-2-(((2R,7aS)-2-fluoro-tetrahydro-1H-pyr-rolizin-7a(5H)-yl)-methoxy)pyrido [4′,3′:4,5]thieno [2,3-d]pyrimidin-4-yl)-6-methyl-1,4-oxazepan-6-ol]
876	648	1160	7210	2310		2680	C[C@@]1(O)COCCN(c2nc(OC[C@@]34CCCN3C[C@H](F)C4)nc3sc4c(-c5c(C(F)F)ccc6[nH]ncc56)nccc4c23)C1 [Ex-134]
2120	743	1210	1870	1430		974	Cc1cc2[nH]nc(C#N)c2c(-c2nccc3c2sc2nc(OC[C@@]45CCCN4C[C@H](F)C5)nc(N4CCOC[C@@](C)(O)C4)c23)c1C(F)(F)F [Ex-150, 4-(2-(((2R,7aS)-2-fluorotetrahydro-1H-pyrrolizin-7a(5H)-yl)methoxy)-4-((S)-6-hydroxy-6-methyl-1,4-oxazepan-4-yl)pyrido[4′,3′:4,5]thieno[2,3-d]pyrimidin-8-yl)-6-methyl-5-(trifluoromethyl)-1H-indazole-3-carbonitrile]
657	241	906	1280	1060		1700	C#Cc1c(F)ccc2nc(N)cc(-c3nccc4c3sc3nc(OC[C@@]56CCCN5C[C@H](F)C6)nc(N5CCOC[C@@](C)(O)C5)c34)c12 [Ex-178, (S)-4-(8-(2-amino-5-ethynyl-6-fluoroquinolin-4-yl)-2-(((2R,7aS)-2-fluorotetrahydro-1H-pyrrolizin-7a(5H)-yl)methoxy)pyrido[4′,3′: 4.5]thieno[2,3-d]pyrimidin-4-yl)-6-methyl-1,4-oxazepan-6-ol]
1600	124	7600	2760	1320		3900	Cc1cc2[nH]ncc2c(-c2nccc3c2sc2nc(OC[C@@]45CCCN4C[C@H](F)C5)nc(N4CCOCC4)c23)c1C(F)(F)F [Ex-179, 4-(2-(((2R,7aS)-2-fluorotetrahydro-1H-pyrrolizin-7a(5H)-yl)methoxy)-8-(6-methyl-5-(trifluoromethyl)-1H-indazol-4-yl)pyrido[4′,3′:4,5]thieno[2,3-d]pyrimidin-4-yl) morpholine]
428	78	2270	725	813		3930	Cc1cc2[nH]ncc2c(-c2nccc3c2sc2nc(OC[C@@]45CCCN4C[C@H](F)C5)nc(N4CCOC(CO)C4)c23)c1C(F)(F)F (stereo partly drawn) [Ex-180, (4-(2-(((2R,7aS)-2-fluoro-tetrahydro-1H-pyrrolizin-7a(5H)-yl)methoxy)-8-(6-methyl-5-(trifluorometh-yl)-1H-indazol-4-yl)pyrido [4′,3′:4,5]thieno[2,3-d]pyr-imidin-4-yl)morpholin-2-yl)methanol]
